According to EP4035684A1, “AFFINITY ILLUDOFULVENE CONJUGATES” (AF Chemical LLC, priority 2019, dated 2022):

Legend:
[1] = system: Prostate PC3 (negative PSA); experiment: Activity of PSA cleavable analogs against PSA negative cell line, 48 hour exposure; format: cell-based; settings: N=3, mean ± SD
[2] = system: Prostate LnCAP (positive PSA); experiment: Activity of PSA cleavable analogs against PSA positive cell line, 48 hour exposure; format: cell-based; settings: Homo sapiens, N=3, mean ± SD
NCI 60 cell line panel = settings: mean over NCI DTP 60 cell lines, cited from earlier work
[3] = system: Prostate DuPro (trace PSA); experiment: Activity of PSA cleavable analogs against trace PSA cell line, 48 hour exposure; format: cell-based; settings: Homo sapiens, N=3, mean ± SD

## CC1=C2C(=C[C@@](C)(CO)[C@@H]2O)C(=O)[C@](C)(O)C12CC2 [Illudin S]
[1]
  IC50: 16 ± 5 nM
[2]
  IC50: 15 ± 3 nM
NCI 60 cell line panel
  Mean TGI cytostatic: 64 nM
NCI 60 cell line panel; read-out: Mean GI50 inhibition
  GI50: 10 nM
[3]
  IC50: 11 ± 3 nM
